Results from patent publication US20250099486A1, “WOUND HEALING MEDICAMENT” (The University of Sheffield, priority 2017, published 2025).

Assays:
[1] = E2 and 2dDR release from PHBV scaffolds in PBS; type: physicochemical; conditions: by 7 days
Protocol: 10% (w/w) PHBV solution loaded was prepared prior to electrospinning. 1 g of PHBV granules (Goodfellow, London, UK) were dissolved in 1 g of methanol (Fisher Scientific, Massachusetts, USA) and 8 g of DCM (Fisher Scientific, Massachusetts, USA) in a fume hood. Four 10% PHBV solutions were prepared prior to addition of substances. Finally, 25 mg E2, 50 mg of E2, 250 mg of 2dDR and 500 mg of 2dDR were then added to each solution per 1 g of PHBV. The mixtures were magnetically stirred overnight.
Scaffolds were cut into pieces so to fit into an 6-well plate, weighed and submerged in 4 ml of PBS. The E2 and 2dDR concentrations released from each group (25 mg E2, 50 mg E2, 250 mg 2dDR, 500 mg 2dDR) were measured […] using a UV-VIS spectrophotometer (Thermo Fischer Evolution 220, Massachusetts, USA) at 238 nm for 2dDR and 220 nm for E2. Absorbance values were converted into concentrations using a standard curve of known concentrations of E2 and 2dDR.

CAM = assay: Ex-ovo CAM assay, direct application of substances; type: in vivo, chicken (Gallus domesticus)
Protocol: All CAM experiments were carried out according to the Home Office, UK guidelines. Fertilised chicken eggs (Gallus domesticus) were purchased from Henry Stewart & Co. (MedEggs, Norwich, UK). The eggs were carefully wiped with 20% industrial methylated spirit (IMS) solution using hand paper towels in order to remove dirt and feathers from the shell. The eggs were then incubated at 37.5° C. until embryonic development day (EDD) 3, lying horizontally in an humidified egg incubator (RCOM King SURO, P&T Poultry, Powys, Wales).
On EDD3, the upper surface of the eggs were marked with a felt pen. The eggs were held horizontally (with the marked surface on top) and cracked on the edge of a 1000 ml glass beaker and kept close to the bottom surface of petri dishes. The embryos were then transferred gently into sterile petri dishes and kept in a humidified incubator (Binder, Tuttlingen, Germany) at 38° C.
Plastic rings (˜6.5 mm in diameter) were used as a reservoir for substances and a marker for the implantation area, were placed on the CAM, and the substances were applied as 20 μl volume onto the CAM twice a day to give a […] between EDD7 and EDD11. Images of the rings were acquired using a digital microscope at EDD11, and then 20% lens culinaris agglutinin (LCA) (Vector Laboratories, Peterborough, UK) was injected into the circulation for labelling the intravascular endothelial cells using 30G needles under a dissection microscope (Wild Heerbrugg, Heerbrugg, Switzerland). CAMs were then removed and fixed in 3.7% formaldehyde solution. Embryos were sacrificed at the end of EDD11. Fixed CAM samples were then imaged under a confocal microscope (Zeiss LSM 510 Meta, Jena, Germany) for investigating the effect of substances on the microvascular structure of the CAMs.
Blood vessels were quantified by segmentation of the images [C. Roma-Rodrigues, A. Heuer-Jungemann, A. R. Fernandes, A. G. Kanaras, P. V. Baptista, Peptide-coated gold nanoparticles for modulation of angiogenesis in vivo, IntJ Nanomedicine. 11 (2016) 2633-2639. doi: 10.2147/IJN.S108661] so as to include all discernible vessels and then counting the branch points and calculating average vessel lengths [D. Ribatti, B. Nico, A. Vacca, M. Presta, The gelatin sponge-chorioallantoic membrane assay, Nat Protoc. 1 (2006) 85-91. doi: 10.1038/nprot.2006.13, P. Brooks, A. P. Montgomery, D. Cheresh, Use of the 10-Day-Old Chick Embryo Model for Studying Angiogenesis, Integrin Protoc. 129 (1999) 257-269. doi: 10.1385/1-59259-249-X: 257] via multiple image processing steps. Firstly, the internal area of the ring was cropped, and the red, green and blue channels were split using Adobe Photoshop CS6 (ADOBE Systems Inc., San Jose, California, USA). The green channel was then imported to ImageJ (Wayne Rasband, National Institutes of Health, USA) for further analysis including unsharp mask filtering, enhancing the local contrast, noise removal and segmentation. Finally, the number of branch points was quantified using quantification software (AngioTool, National Cancer Institute, USA) (FIG. 14A) and average blood vessel lengths were calculated by using binary image histograms with known pixel/mm ratios in ImageJ (Wayne Rasband, National Institutes of Health, USA).
The percentage vascular area (VA %) of the microvasculature of CAMs were quantified using confocal images of rhodamine labelled lectin injected CAM samples as shown in FIG. 14B. To do this, images were imported to ImageJ (Wayne Rasband, National Institutes of Health, USA) and converted to binary images after filtering and smoothing processes prior to quantification. VA % was calculated using the histogram list of black and white areas in the image.
All chemicals were purchased from Sigma Aldrich unless indicated otherwise. […]

[2] = test system: chorionic allantoic membrane (CAM); assay: CAM assay of deoxy sugar-loaded biomaterials (in ovo, implanted day 8, scored day 14); type: in vivo, chicken (Gallus domesticus)
Protocol: Fertilized chicken (Gallus domesticus) eggs were purchased from Big Bird (Raiwind road, Lahore, Pakistan) and incubated at 37° C. from day 2 of fertilization until day 8 in a humidified egg incubator (HHD, 435, China). At day 8, a square window (1 cm^2) was cut into the shell and removed, and a 2 cm^2 piece of the electrospun scaffold or hydrogels (16% PCL electrospun scaffold/CS/PVA hydrogel/CS/collagen hydrogels) placed onto the CAM. Each egg was implanted with one scaffold or hydrogel only.
The shell window was closed with parafilm (Bemis Flexible Packaging, USA) and sealed with adhesive tape. After implantation, eggs were placed again at 37° C. in a 40% humidified incubator until day 14. At day 14, biomaterials were retrieved and the eggs were sacrificed. Angiogenesis was quantified by taking light microscope pictures just before scaffold retrieval and then blindly scored by four assessors using histological images of the retrieved materials. The number of implanted and survived eggs is given in the caption of respective CAM assay figures.
D and L isomers of three-deoxysugars (ribose, fucose and rhamnose) were loaded onto the porous freeze gelated triethyl orthoformate (4%) covalently cross-linked chitosan/collagen (1:1) hydrogels. The hydrogels were soaked in an aqueous solution of sugars (1 mg/ml) and were further lyophilized (freeze dried) to produce porous membranes. As for the electrospun scaffold, the hydrogels were grafted into the fertilized eggs at day 8 and after day 14 the eggs were sacrificed and the effect of sugars on angiogenesis was investigated.

release from the scaffolds, of the amount present in the polymer solution ([1]; 250 mg 2dDR per 1 g PHBV scaffold): 81.3%
release from the scaffolds, of the amount present in the polymer solution ([1]; 500 mg 2dDR per 1 g PHBV scaffold): 86.5%
SMILES: O=CC[C@H](O)[C@H](O)CO [2-deoxy-D-ribose]
increase of number of branch points (CAM; 2dDR 20 μg/day): 1.3 times
increase of number of branch points (CAM; 2dDR 200 μg/day): 1.4 times
percentage vascular area (VA %) of microvasculature (CAM; 2dDR 200 μg/day, over 4 days, control 55.3%±3%): 71.7%±3%
angiogenic response (average vessel length) compared to control (CAM; 2dDR 1000 μg/day): no significant difference
increase of average vessel length (CAM; both 2dDR 20 μg/day and 200 μg/day): 1.2 times
angiogenic response ([2]; loaded (1 mg/ml) in cross-linked chitosan/collagen hydrogels): strongly angiogenic
angiogenesis compared to the control material ([2]; loaded in chitosan/PVA triethyl orthoformate cross-linked hydrogels): promoted angiogenesis
angiogenic potential (new blood vessels) ([2]; loaded in electrospun PCL fibers): growth of extensive new blood vessels under the material
